These results are taken from PubChem BioAssay (NCI).

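Five concentrations, 48 hours, 96-well plates. GI50 is the concentration that inhibits growth by half. TGI marks complete inhibition of growth.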 Some results are limits rather than exact numbers.

Among the test systems are 786-0 renal; IGROV1 ovarian; K-562 leukemia; LOX IMVI melanoma; M14 melanoma; NCI-H460 lung; SF-268 CNS; SF-295 CNS; SN12C renal.
Test in all cases: NCI-60 cell line screen, 48 h

As for `CC(C)C1=Cc2ccc3c(c2C(=O)C1=O)CCCC3`, the TGI in the assay with 786-0 renal was 6.02 µM; with IGROV1 ovarian it was 12.1 µM; in the assay on K-562 leukemia, 14.1 µM; with LOX IMVI melanoma, 25.6 µM; in the assay on M14 melanoma, 11.1 µM; with NCI-H460 lung it was 26.6 µM. In addition, the figures for the TGI in the assay with SF-268 CNS, with SF-295 CNS and with SN12C renal were 16.6 µM, 25.8 µM and 13.1 µM, respectively.
In the case of `C=CCCn1nc(-c2ccccc2)oc1=O`, the TGI in the assay on 786-0 renal, in the assay with IGROV1 ovarian, with K-562 leukemia, with LOX IMVI melanoma, in the assay on M14 melanoma and with NCI-H460 lung was over 100 µM throughout. The TGI in the assay with SF-268 CNS, with SF-295 CNS and in the assay on SN12C renal was over 100 µM each time.
Take `CN(C)CC1(C)CC/C(=C\c2ccc(Cl)cc2)C1=O` (stereo not drawn): the TGI in the assay with 786-0 renal is over 100 µM; with IGROV1 ovarian, over 100 µM; in the assay on K-562 leukemia it was over 100 µM; in the assay with LOX IMVI melanoma, 82.1 µM; in the assay on M14 melanoma, over 100 µM; with NCI-H460 lung, 54.6 µM. Also, the TGI with SF-268 CNS, in the assay on SF-295 CNS and in the assay with SN12C renal was over 100 µM in each case.
`C[C@@H]1CC[C@@]2(C)OC(c3ccccc3)[C@H](CO)N2C1=O` (stereo partly drawn): the TGI in the assay on 786-0 renal, in the assay with IGROV1 ovarian, in the assay on K-562 leukemia, in the assay on LOX IMVI melanoma, in the assay with NCI-H460 lung and in the assay with SF-268 CNS was over 100 µM throughout. Further, the TGI in the assay on SF-295 CNS and in the assay with SN12C renal was over 100 µM in each case.
For the compound `C=CC12CCCCC1CC(C(=O)OC)=C(O)C2` (stereo not drawn), the TGI with 786-0 renal, in the assay on IGROV1 ovarian, in the assay with K-562 leukemia, in the assay on LOX IMVI melanoma, in the assay with M14 melanoma and in the assay on NCI-H460 lung was over 100 µM in each case. The TGI in the assay on SF-268 CNS, in the assay with SF-295 CNS and in the assay with SN12C renal was over 100 µM in each case.
For the compound `CC1OC(n2cc(F)c(=O)[nH]c2=O)CCC1=O` (stereo not drawn), the TGI with 786-0 renal, in the assay with IGROV1 ovarian, with K-562 leukemia, with LOX IMVI melanoma, with M14 melanoma and in the assay with NCI-H460 lung was over 100 µM each time. The TGI with SF-268 CNS, in the assay on SF-295 CNS and in the assay with SN12C renal was over 100 µM in each case.
Consider `O/N=C1/CCCC/C1=C\c1ccc(Cl)c(Cl)c1`, for which the TGI in the assay with 786-0 renal is over 100 µM; in the assay with IGROV1 ovarian, over 100 µM; in the assay with K-562 leukemia, over 100 µM; in the assay with LOX IMVI melanoma it was 42.9 µM; in the assay on M14 melanoma it was 82.9 µM; with NCI-H460 lung, 57.1 µM. For the same compound, the TGI is over 100 µM in the assay on SF-268 CNS, over 100 µM in the assay with SF-295 CNS and 42.3 µM with SN12C renal.
Turning to `COc1ccc(C)c2sc(N(Cc3cccnc3)C(=O)c3ccc(C#N)cc3)nc12`, the GI50 is 56.8 µM with 786-0 renal; 52 µM in the assay with IGROV1 ovarian; 37.9 µM in the assay on K-562 leukemia; 40.8 µM in the assay with LOX IMVI melanoma; 44.9 µM with M14 melanoma; 40 µM with NCI-H460 lung. For the same compound, the figures for the GI50 in the assay with SF-268 CNS, in the assay with SF-295 CNS and in the assay with SN12C renal were 58.7 µM, 51.8 µM and 44.2 µM, respectively. Moreover, the TGI in the assay with 786-0 renal, with IGROV1 ovarian, in the assay on K-562 leukemia, in the assay on LOX IMVI melanoma, in the assay with M14 melanoma and in the assay on NCI-H460 lung was over 100 µM throughout. Besides, the TGI with SF-268 CNS, in the assay on SF-295 CNS and in the assay on SN12C renal was over 100 µM in each case.
With `CC(=O)N1c2ccccc2N(C(C)=O)C1c1ccc(C2N(C(C)=O)c3ccccc3N2C(C)=O)[nH]1`, the TGI with 786-0 renal, in the assay with IGROV1 ovarian, in the assay on K-562 leukemia, with LOX IMVI melanoma, in the assay on M14 melanoma and in the assay with NCI-H460 lung was over 100 µM each time. Also, the TGI with SF-268 CNS, in the assay on SF-295 CNS and with SN12C renal was over 100 µM each time.
As for `C=C(C)CC(C(=O)O)c1ccc(C)cc1` (stereo not drawn), the TGI with 786-0 renal, in the assay with IGROV1 ovarian, with K-562 leukemia, in the assay with LOX IMVI melanoma, in the assay on NCI-H460 lung and in the assay with SF-268 CNS was over 100 µM each time. Also, the TGI with SF-295 CNS and with SN12C renal was over 100 µM throughout.
For `O=CCCn1[nH]c(=O)ccc1=O`, the TGI with 786-0 renal, in the assay on IGROV1 ovarian, in the assay with K-562 leukemia, in the assay with LOX IMVI melanoma, in the assay on M14 melanoma and in the assay with NCI-H460 lung was over 100 µM throughout. The TGI in the assay with SF-268 CNS, in the assay on SF-295 CNS and with SN12C renal was over 100 µM each time.
As for `NC1=NN(c2ccccc2)C(=O)C1C(=O)C(=O)Nc1ccccc1` (stereo not drawn), the TGI in the assay with 786-0 renal, with IGROV1 ovarian, in the assay on K-562 leukemia, with LOX IMVI melanoma, in the assay on M14 melanoma and with NCI-H460 lung was over 100 µM throughout. The TGI with SF-268 CNS, with SF-295 CNS and in the assay on SN12C renal was over 100 µM in each case.
With `COc1ccc(/C=C/c2onc3c(=O)n(C)nc(-c4ccccc4)c23)cc1`, the TGI with 786-0 renal, with IGROV1 ovarian, in the assay with K-562 leukemia, with LOX IMVI melanoma, in the assay on M14 melanoma and in the assay on NCI-H460 lung was over 100 µM in each case. The TGI with SF-268 CNS and with SN12C renal was over 100 µM throughout.
